From ChEMBL document CHEMBL1671699, “Steady-state intrapulmonary pharmacokinetics and pharmacodynamics of posaconazole in lung transplant recipients” (Antimicrob Agents Chemother, 2010)

Assays:
[1] = Tmax in lung transplant recipient epithelial lining fluid at 400 mg, po every 12 hrs after 12 hrs by LC/MS analysis; type: ADME, organism-based; conditions: human
[2] = T>MIC90 for Aspergillus spp. infected lung transplant recipient epithelial lining fluid at 400 mg, po every 12 hrs by LS/MS analysis; type: functional
[3] = Drug level in lung transplant recipient epithelial lining fluid at 400 mg, po every 12 hrs after 24 hrs by LS/MS analysis; type: ADME, organism-based; conditions: human, read-out: Drug uptake
[4] = Cmax in lung transplant recipient plasma at 400 mg, po every 12 hrs after 12 hrs by LC/MS analysis; type: ADME, organism-based; set-up: dose 400 mg, route oral; conditions: human
[5] = Drug level in lung transplant recipient plasma at 400 mg, po every 12 hrs after 3 hrs by LS/MS analysis; type: ADME, organism-based; conditions: human, read-out: Drug uptake
[6] = Ratio of drug level in lung transplant human recipient epithelial lining fluid to plasma at 400 mg, po every 12 hrs after 12 hrs by LS/MS analysis; type: ADME, organism-based
[7] = Ratio of AUC (0 to 12 hrs) in lung transplant recipient alveolar cell to MIC90 for Aspergillus spp.; type: functional, Pneumocyte
[8] = Cmax in lung transplant recipient epithelial lining fluid at 400 mg, po every 12 hrs after 12 hrs by LC/MS analysis; type: ADME, organism-based; set-up: dose 400 mg, route oral; conditions: human
[9] = Ratio of drug level in lung transplant human recipient alveolar cell to plasma at 400 mg, po every 12 hrs after 5 hrs by LS/MS analysis; type: ADME, organism-based, Pneumocyte; conditions: other tissue
[10] = Drug level in lung transplant recipient alveolar cell at 400 mg, po every 12 hrs after 8 hrs by LS/MS analysis; type: ADME, organism-based, Pneumocyte; conditions: human, alveolar cells, read-out: Drug uptake
[11] = Ratio of Cmax in lung transplant recipient plasma after 12 hrs to MIC90 for Aspergillus spp.; type: functional
[12] = Ratio of AUC (0 to 24 hrs) in lung transplant recipient plasma to MIC90 for Aspergillus spp.; type: functional
[13] = Ratio of AUC (0 to 12 hrs) in lung transplant recipient epithelial lining fluid to MIC90 for Aspergillus spp.; type: functional
[14] = Ratio of drug level in lung transplant human recipient epithelial lining fluid to plasma at 400 mg, po every 12 hrs after 8 hrs by LS/MS analysis; type: ADME, organism-based
[15] = Drug level in lung transplant recipient epithelial lining fluid at 400 mg, po every 12 hrs after 12 hrs by LS/MS analysis; type: ADME, organism-based; conditions: human, read-out: Drug uptake
[16] = Ratio of AUC (0 to 12 hrs) in lung transplant recipient plasma to MIC90 for Aspergillus spp.; type: functional
[17] = AUC (0 to 24 hrs) in lung transplant recipient epithelial lining fluid at 400 mg, po every 12 hrs by LC/MS analysis; type: ADME, organism-based; set-up: time < 24 hr, dose 400 mg, route oral; conditions: human, in vivo
[18] = Ratio of Cmax in lung transplant recipient alveolar cell after 12 hrs to MIC90 for Aspergillus spp.; type: functional, Pneumocyte
[19] = Ratio of drug level in lung transplant human recipient alveolar cell to plasma at 400 mg, po every 12 hrs after 24 hrs by LS/MS analysis; type: ADME, organism-based, Pneumocyte; conditions: other tissue
[20] = Ratio of AUC (0 to 24 hrs) in lung transplant recipient alveolar cell to MIC90 for Aspergillus spp.; type: functional, Pneumocyte
[21] = Ratio of drug level in lung transplant human recipient epithelial lining fluid to plasma at 400 mg, po every 12 hrs after 3 hrs by LS/MS analysis; type: ADME, organism-based
[22] = AUC (0 to 24 hrs) in lung transplant recipient alveolar cell at 400 mg, po every 12 hrs by LC/MS analysis; type: ADME, organism-based, Pneumocyte; set-up: time < 24 hr, dose 400 mg, route oral; conditions: human, in vivo
Plasma [23] = test: AUC (0 to 24 hrs) in lung transplant recipient plasma at 400 mg, po every 12 hrs by LC/MS analysis; type: ADME, organism-based; set-up: dose 400 mg, time < 24 hr, route oral; conditions: human, in vivo
[24] = Cmin in lung transplant recipient alveolar cell at 400 mg, po every 12 hrs after 12 hrs by LC/MS analysis; type: ADME, organism-based, Pneumocyte; conditions: human, alveolar cells, read-out: Cmin
[25] = Ratio of Cmax in lung transplant recipient epithelial lining fluid after 12 hrs to MIC90 for Aspergillus spp.; type: functional
[26] = T>MIC90 for Aspergillus spp. infected lung transplant recipient plasma at 400 mg, po every 12 hrs by LS/MS analysis; type: functional
Plasma [27] = test: AUC (0 to 12 hrs) in lung transplant recipient plasma at 400 mg, po every 12 hrs by LC/MS analysis; type: ADME, organism-based; set-up: dose 400 mg, time < 12 hr, route oral; conditions: human, in vivo
[28] = Ratio of fAUC (0 to 24 hrs) in lung transplant recipient plasma to MIC90 for Aspergillus spp.; type: functional
[29] = Drug level in lung transplant recipient alveolar cell at 400 mg, po every 12 hrs after 5 hrs by LS/MS analysis; type: ADME, organism-based, Pneumocyte; conditions: human, alveolar cells, read-out: Drug uptake
[30] = Ratio of drug level in lung transplant human recipient alveolar cell to plasma at 400 mg, po every 12 hrs after 8 hrs by LS/MS analysis; type: ADME, organism-based, Pneumocyte; conditions: other tissue
[31] = Drug level in lung transplant recipient plasma at 400 mg, po every 12 hrs after 12 hrs by LS/MS analysis; type: ADME, organism-based; conditions: human, read-out: Drug uptake
[32] = Ratio of fCmax in lung transplant recipient plasma after 12 hrs to MIC90 for Aspergillus spp.; type: functional
[33] = Drug level in lung transplant recipient plasma at 400 mg, po every 12 hrs after 5 hrs by LS/MS analysis; type: ADME, organism-based; conditions: human, read-out: Drug uptake
[34] = Ratio of drug level in lung transplant human recipient alveolar cell to plasma at 400 mg, po every 12 hrs after 3 hrs by LS/MS analysis; type: ADME, organism-based, Pneumocyte; conditions: other tissue
[35] = Tmax in lung transplant recipient alveolar cell at 400 mg, po every 12 hrs after 12 hrs by LC/MS analysis; type: ADME, organism-based, Pneumocyte; conditions: human, alveolar cells
[36] = Drug level in lung transplant recipient epithelial lining fluid at 400 mg, po every 12 hrs after 5 hrs by LS/MS analysis; type: ADME, organism-based; conditions: human, read-out: Drug uptake
[37] = Ratio of drug level in lung transplant human recipient epithelial lining fluid to plasma at 400 mg, po every 12 hrs after 24 hrs by LS/MS analysis; type: ADME, organism-based
[38] = Drug level in lung transplant recipient plasma at 400 mg, po every 12 hrs after 8 hrs by LS/MS analysis; type: ADME, organism-based; conditions: human, read-out: Drug uptake
[39] = Cmax in lung transplant recipient alveolar cell at 400 mg, po every 12 hrs after 12 hrs by LC/MS analysis; type: ADME, organism-based, Pneumocyte; set-up: dose 400 mg, route oral; conditions: human, alveolar cells
[40] = Ratio of fAUC (0 to 12 hrs) in lung transplant recipient plasma to MIC90 for Aspergillus spp.; type: functional
[41] = Ratio of AUC (0 to 24 hrs) in lung transplant recipient epithelial lining fluid to MIC90 for Aspergillus spp.; type: functional
[42] = Tmax in lung transplant recipient plasma at 400 mg, po every 12 hrs after 12 hrs by LC/MS analysis; type: ADME, organism-based; conditions: human
[43] = AUC (0 to 12 hrs) in lung transplant recipient alveolar cell at 400 mg, po every 12 hrs by LC/MS analysis; type: ADME, organism-based, Pneumocyte; set-up: time < 12 hr, dose 400 mg, route oral; conditions: human, in vivo
[44] = Ratio of drug level in lung transplant human recipient epithelial lining fluid to plasma at 400 mg, po every 12 hrs after 5 hrs by LS/MS analysis; type: ADME, organism-based
[45] = Drug level in lung transplant recipient alveolar cell at 400 mg, po every 12 hrs after 24 hrs by LS/MS analysis; type: ADME, organism-based, Pneumocyte; conditions: human, alveolar cells, read-out: Drug uptake
[46] = Ratio of drug level in lung transplant human recipient alveolar cell to plasma at 400 mg, po every 12 hrs after 12 hrs by LS/MS analysis; type: ADME, organism-based, Pneumocyte; conditions: other tissue
[47] = Cmin in lung transplant recipient plasma at 400 mg, po every 12 hrs after 12 hrs by LC/MS analysis; type: ADME, organism-based; conditions: human, read-out: Cmin
[48] = Drug level in lung transplant recipient alveolar cell at 400 mg, po every 12 hrs after 3 hrs by LS/MS analysis; type: ADME, organism-based, Pneumocyte; conditions: human, alveolar cells, read-out: Drug uptake
[49] = Drug level in lung transplant recipient epithelial lining fluid at 400 mg, po every 12 hrs after 3 hrs by LS/MS analysis; type: ADME, organism-based; conditions: human, read-out: Drug uptake
[50] = Protein binding in human plasma at 400 mg, po BID by LS/MS analysis; type: ADME, organism-based; conditions: read-out: PPB
[51] = T>MIC90 for Aspergillus spp. infected lung transplant recipient alveolar cell at 400 mg, po every 12 hrs by LS/MS analysis; type: functional, Pneumocyte
[52] = Drug level in lung transplant recipient epithelial lining fluid at 400 mg, po every 12 hrs after 8 hrs by LS/MS analysis; type: ADME, organism-based; conditions: human, read-out: Drug uptake
[53] = Drug level in lung transplant recipient plasma at 400 mg, po every 12 hrs after 24 hrs by LS/MS analysis; type: ADME, organism-based; conditions: human, read-out: Drug uptake
[54] = Drug level in lung transplant recipient alveolar cell at 400 mg, po every 12 hrs after 12 hrs by LS/MS analysis; type: ADME, organism-based, Pneumocyte; conditions: human, alveolar cells, read-out: Drug uptake
[55] = AUC (0 to 12 hrs) in lung transplant recipient epithelial lining fluid at 400 mg, po every 12 hrs by LC/MS analysis; type: ADME, organism-based; set-up: time < 12 hr, dose 400 mg, route oral; conditions: human, in vivo

SMILES: CC[C@@H]([C@H](C)O)n1ncn(-c2ccc(N3CCN(c4ccc(OC[C@@H]5CO[C@@](Cn6cncn6)(c6ccc(F)cc6F)C5)cc4)CC3)cc2)c1=O [POSACONAZOLE]
- Tmax [1]: 5.3 h
- T>MIC90 [2]: 24 h
- concentration at 24 h [3]: 500 ng/mL
- Cmax [4]: 1300 ng/mL
- concentration at 3 h [5]: 1300 ng/mL
- Kp at 12 h [6]: 1
- Ratio [7]: 1162
- Cmax [8]: 1300 ng/mL
- Ratio [9]: 27.3
- concentration at 8 h [10]: 54700 ng/mL
- Ratio [11]: 2.5
- Ratio [12]: 39.9
- Ratio [13]: 18.42
- Kp at 8 h [14]: 0.9
- concentration at 12 h [15]: 1200 ng/mL
- Ratio [16]: 19.95
- AUC [17]: 22.42 µg/h/mL
- Ratio [18]: 110.8
- Ratio [19]: 56.4
- Ratio [20]: 2324
- Kp at 3 h [21]: 0.94
- AUC [22]: 1060 µg/h/mL
- AUC (Plasma [23]): 21.98 µg/h/mL
- concentration at 12 h [24]: 31300 ng/mL
- Ratio [25]: 2.6
- T>MIC90 [26]: 24 h
- AUC (Plasma [27]): 10.99 µg/h/mL
- Ratio [28]: 0.6
- concentration at 5 h [29]: 31300 ng/mL
- Ratio [30]: 63.6
- concentration at 12 h [31]: 930 ng/mL
- Ratio [32]: 0.04
- concentration at 5 h [33]: 1100 ng/mL
- Ratio [34]: 40.7
- Tmax [35]: 3.2 h
- concentration at 5 h [36]: 1300 ng/mL
- Kp at 24 h [37]: 0.68
- concentration at 8 h [38]: 810 ng/mL
- Cmax [39]: 55400 ng/mL
- Ratio [40]: 0.33
- Ratio [41]: 36.84
- Tmax [42]: 2.8 h
- AUC [43]: 530.2 µg/h/mL
- Kp at 5 h [44]: 0.57
- concentration at 24 h [45]: 49600 ng/mL
- Ratio [46]: 53.3
- concentration at 12 h [47]: 810 ng/mL
- concentration at 3 h [48]: 55400 ng/mL
- concentration at 3 h [49]: 1100 ng/mL
- fraction unbound [50]: < 0.02
- T>MIC90 [51]: 24 h
- concentration at 8 h [52]: 1000 ng/mL
- concentration at 24 h [53]: 740 ng/mL
- concentration at 12 h [54]: 36800 ng/mL
- AUC [55]: 11.21 µg/h/mL
